Data taken from patent publication US5217975A (priority 1989, dated 1993).
Where two headings read alike, the source gives them in different places.

Columns and labels:
muscarinic receptors [1] = assay type: binding, Hooded Lister rats; conditions: displacement of 0.27 nM 3H-QNB, rat cerebral cortex, 37° C., 30 min
muscarinic receptors [2] = experiment: Radioligand binding: displacement of muscarinic agonist 3H-Oxotremorine-M (3H-OXO-M), rat cerebral cortex; set-up: species or system Hooded Lister rats; conditions: displacement of 2 nM 3H-OXO-M, 2 mM magnesium chloride, 37° C., 30 min

| Compound | IC50 (muscarinic receptors [1]) [nM] | IC50 (muscarinic receptors [2]) [nM] |
| --- | --- | --- |
| Cn1ncc(C23CCCN(CC2)C3)n1 (racemic) [Example E1, (±) 5-(2-Methyl-1,2,3-triazol-4-yl)-1-azabicyclo-[3.2.1]octane] | 3000 | 14.2 |
| Cn1nnc(C2CN3CCC2CC3)n1 (racemic) [Example E2, (±) 3-(2-Methyltetrazol-5-yl)-1-azabicyclo[2.2.2]octane] | 5700 | 230 |
| Cn1nnc(C23CCCN(CC2)C3)n1 (racemic) [Example E3, (±) 5-(2-Methyltetrazol-5-yl)-1-azabicyclo[3.2.1]octane] | 8200 | 100 |
| CCn1nnc(C2CN3CCC2CC3)n1 (racemic) [Example E9, (±) 3-(2-Ethyltetrazol-5-yl)-1-azabicyclo[2.2.2]octane] | 8300 | 1000 |
| Cn1ncc(C2CN3CCC2CC3)n1 (racemic) [Example E11] | 6550 | 56 |
| Cn1nncc1C1CN2CCC1CC2 (racemic) [Example E13] | 38000 | 750 |
| Cn1nnc([C@@H]2CN3CC[C@@H]2C3)n1 (relative stereo) [Example E4, (±) exo-3-(2-Methyltetrazol-5-yl)-1-azabicyclo-[2.2.1]heptane] | 3700 | 11.5 |
| Cn1nnnc1[C@@H]1CN2CC[C@@H]1C2 (relative stereo) [Example E5, (±) exo-3-(1-Methyltetrazol-5-yl)-1-azabicyclo-[2.2.1]heptane] | 95000 | 349 |
| Cn1nnc([C@H]2CN3CC[C@@H]2C3)n1 (relative stereo) [Example E6, (±) endo-3-(2-Methyltetrazol-5-yl)-1-azabicyclo-[2.2.1]heptane] | 40000 | 324 |
| Cn1ncc([C@@H]2CN3CC[C@@H]2C3)n1 (relative stereo) [Example E14, (±) exo-3-(2-Methyl-1,2,3-triazol-4-y1)-1-azabicyclo 2.2.1]heptane] | 5700 | 5.6 |
| Cn1ncc([C@H]2CN3CC[C@@H]2C3)n1 (relative stereo) [Example E15, (±) endo-3-(2-Methyl-1,2,3-triazol-4-yl)-1-azabicyclo [2.2.1]heptane] | 18500 | 10.5 |
| CCn1nnc([C@@H]2CN3CC[C@@H]2C3)n1 (relative stereo) [Example E18, (±) exo-3-(2-Ethyltetrazol-5-yl)-1-azabicyclo[2.2.1]heptane] | 5500 | 400 |
| CCn1ncc([C@@H]2CN3CC[C@@H]2C3)n1 (relative stereo) [Example E19, (±) exo-3-(2-Ethyl-1.2.3-triazol-4-yl)-1-azabicyclo [2.2.1]heptane] | 2200 | 540 |
| Cn1nnc(C23CCN(CC2)C3)n1 [Example E8, 4-(2-Methyltetrazol-5-yl)-1-azabicyclo2.2.11 heptane] | 56000 | 250 |
| Cn1ncc(C23CCN(CC2)C3)n1 [Example E10, 4-(2-Methyl-1,2,3-triazol-4-yl)-1-azabicyclo[2.2.1]-heptane] | 20000 | 32 |
| CCn1ncc(C23CCN(CC2)C3)n1 [Example E16] | 15800 | 440 |
